From patent publication US10350211B2, “Bumped kinase inhibitor compositions and methods for treating cancer” (UNIVERSITY OF WASHINGTON, priority 2015, dated 2019)

What was measured:
[1] = cited from earlier work
PKD = conditions: cited from earlier work
[2] = system: other human kinases beyond PKDs, including mutated Src; conditions: cited from earlier work
[3] = system: prostate cancer AR− as well as AR+ lines; conditions: cited from earlier work
[4] = therapeutic levels cannot be obtained in vivo; cited from earlier work
MDA231 cell = test: Breast cancer cell proliferation, MDA231; assay type: cell-based; conditions: 72 hours; tested at 0.2, 2, and 20 μM, concentration of the values not given
Method: (§1) MCF7 and MDA231 cell lines were plated at 2000 and 1000 cells/well, respectively. 24 hours later, BKI inhibitor of the disclosure was added to each well at concentrations of 0.2, 2, and 20 μM. After 72 hours, […] was used to measure cell growth.

MCF7 cell = test: Breast cancer cell proliferation, MCF7; assay type: cell-based; conditions: 72 hours; tested at 0.2, 2, and 20 μM, concentration of the values not given
Method: as §1

PCa tumor = conditions: 60 mg/kg, 2× daily; cited from earlier work

| SMILES | MDA231 cell inhibition (%) (MDA231 cell) | MCF7 cell inhibition (%) (MCF7 cell) | other results |
| --- | --- | --- | --- |
| CC(C)(C)n1nc(-c2cccc3ccccc23)c2c(N)ncnc21 [Example 1NA-PP1] |  |  | solubility [1]: low solubility; PKD kinase activity (PKD): potently blocked; off-target kinases [2]: target other human kinases beyond PKDs, including mutated Src; prostate cancer cell growth/proliferation [3]: potently blocked; metabolism [4]: quickly metabolized |
| CC(C)(C)n1nc(Cc2cccc3ccccc23)c2c(N)ncnc21 [Example 1NM-PP1] |  |  | solubility [1]: low solubility; PKD kinase activity (PKD): potently blocked; off-target kinases [2]: target other human kinases beyond PKDs, including mutated Src; prostate cancer cell growth/proliferation [3]: potently blocked; metabolism [4]: quickly metabolized |
| CN1CCC(Cn2nc(-c3ccc4cc(OC5CC5)ccc4c3)c3c(N)ncnc32)CC1 [Example 4, 3-(6-Cyclopropoxynaphthalen-2-yl)-1-((1-methylpiperidin-4-yl)methyl)-1H-pyrazolo[3,4-d]pyrimidin-4-amine] | 60 | 50 |  |
| CCOc1ccc2cc(-c3nn(CC4CCN(C)CC4)c4ncnc(N)c34)ccc2n1 [Example 15, 3-(2-Ethoxyquinolin-6-yl)-1-((1-methylpiperidin-4-yl)methyl)-1H-pyrazolo[3,4-d]pyrimidin-4-amine] | 30 | 40 |  |
| CN1CCC(Cn2nc(-c3ccc4nc(OCC(F)(F)F)ccc4c3)c3c(N)ncnc32)CC1 [Example 16, 1-((1-Methylpiperidin-4-yl)methyl)-3-(2-(2,2,2-trifluoroethoxy)quinolin-6-yl)-1H-pyrazolo[3,4-d]pyrimidin-4-amine] | 90 | 50 |  |
| CC(C)(O)Cn1nc(-c2ccc3nc(OC4CC4)ccc3c2)c2c(N)ncnc21 [Example 25, 1-(4-Amino-3-(2-cyclopropoxyquinolin-6-yl)-1H-pyrazolo[3,4-d]pyrimidin-1-yl)-2-methylpropan-2-ol] | 20 | 30 |  |
| CCOc1ccc2ccc(-c3nn(CC4CCNCC4)c4ncnc(N)c34)cc2c1 [Example 51, 3-(7-ethoxynaphthalen-2-yl)-1-(piperidin-4-ylmethyl)-1H-pyrazolo[3,4-d]pyrimidin-4-amine] | 95 | 97 |  |
| CC(C)(O)Cn1cc(-c2ccc3nc(OC4CC4)ccc3c2)c2c(N)ncnc21 [Example 58, 1-(4-amino-5-(2-cyclopropoxyquinolin-6-yl)-7H-pyrrolo[2,3-d]pyrimidin-7-yl)-2-methylpropan-2-ol] | 10 | 50 |  |
| Nc1ncnc2c1c(-c1ccc3nc(OC4CC4)ccc3c1)nn2CC1(CO)COC1 [Example 67, (3-((4-amino-3-(2-cyclopropoxyquinolin-6-yl)-1H-pyrazolo[3,4-d]pyrimidin-1-yl)methyl)oxetan-3-yl)methanol] | 0 | 40 |  |
| CCOc1ccc2cc(-c3nn(C4CCN(CC)CC4)c4ncnc(N)c34)ccc2c1 [Example 109, 3-(6-ethoxynaphthalen-2-yl)-1-(1-ethylpiperidin-4-yl)-1H-pyrazolo[3,4-d]pyrimidin-4-amine] | 50 | 50 |  |
| CCOc1ccc2cc(-c3nn(C(C)C)c4ncnc(N)c34)ccc2n1 [Example 110, 3-(2-ethoxyquinolin-6-yl)-1-isopropyl-1H-pyrazolo[3,4-d]pyrimidin-4-amine] | 10 | 30 |  |
| CCOc1ccc2cc(-c3nn(C4CCNCC4)c4ncnc(N)c34)ccc2c1 [Example 111, 3-(6-ethoxynaphthalen-2-yl)-1-(piperidin-4-yl)-1H-pyrazolo[3,4-d]pyrimidin-4-amine] | 90 | 70 |  |
| CCOc1ccc2cc(-c3nc(CC4CCNCC4)n4ccnc(N)c34)ccc2c1 [Example 120, 1-(6-ethoxynaphthalen-2-yl)-3-(piperidin-4-ylmethyl)imidazo[1,5-a]pyrazin-8-amine] | 50 | 30 |  |
| CCOc1ccc2cc(-c3nn(CC4CCNCC4)c4ncnc(N)c34)ccc2n1 [Example 127, 3-(2-ethoxyquinolin-6-yl)-1-(piperidin-4-ylmethyl)-1H-pyrazolo[3,4-d]pyrimidin-4-amine] | 0 | 50 |  |
| CCOc1ccc2cc(-c3nn(CC4CCN(C)CC4)c4ncnc(N)c34)ccc2c1 [Example 128] | 50 | 40 |  |
| CCCOc1ccc2cc(-c3nn(CC4CCNCC4)c4ncnc(N)c34)ccc2c1 [Example 129, 1-(piperidin-4-ylmethyl)-3-(6-propoxynaphthalen-2-yl)-1H-pyrazolo[3,4-d]pyrimidin-4-amine] | 90 | 75 |  |
| CC(C)Oc1ccc2cc(-c3nn(CC4CCNCC4)c4ncnc(N)c34)ccc2c1 [Example 130, 3-(6-isopropoxynaphthalen-2-yl)-1-(piperidin-4-ylmethyl)-1H-pyrazolo[3,4-d]pyrimidin-4-amine] | 80 | 30 |  |
| Fc1ccc(Cl)cc1-c1nc(Nc2ccncc2)c2nccnc2n1 [SD-208] |  |  | PKD kinase activity (PKD): potently blocked; PCa tumor growth (PCa tumor): decrease in PCa tumor growth; prostate cancer cell growth/proliferation [3]: potently blocked |
